{
  "source": "patent US20050112179A1",
  "about": "“Method to reduce stool odor of companion animals” (priority 2003, published 2005)",
  "key": {"[1]": {"tested_on": "stool odor compounds", "conditions": "3 weeks; for Alcohols / Aldehydes / Carboxylic acids / Esters / Heterocycles / Indoles / Ketones / Phenols / Thiols/Sulfides: dog stool, area under chromatogram peak", "experimental": "(§1) An experiment was conducted to characterize the effects of zinc acetate on stool odor compounds in dogs. To a control food, which was a dry food composed of kibbles containing a base level of 150 ppm zinc in the form of zinc acetate, various amounts of zinc in the form of zinc acetate were added as a coating on the kibbles. This was done by hand coating (sprinkling) fine zinc acetate powder on the kibble in a rotating drum in a two-step coating process after all other topical ingredients had been added by in-line enrobing. Ten dogs were fed control food with no added zinc, ten dogs were fed control food with 400 ppm zinc added, ten dogs were fed control food with 600 ppm zinc added, and ten dogs were fed control food with 900 ppm zinc added. The dogs were fed one of these diets for three weeks. At the end of three weeks, stool samples were collected and analyzed by putting a standard amount of stool in a glass container and incubating a solid phase microextraction fiber in the headspace. Volatiles bound to the fiber were eluted onto a gas chromatograph for analysis. The compounds were identified using a […].\n(§2) The numbers indicate relative differences as measured by the area under the peak in a chromatogram."}, "[2]": {"tested_on": "stool odor compounds", "conditions": "one month; for Alcohols / Aldehydes / Carboxylic acids / Esters / Heterocycles / Indoles / Ketones / Phenols / Thiols/Sulfides: cat stool, area under chromatogram peak", "experimental": "as §1\nAn experiment was conducted to characterize the effects of zinc acetate on stool odor compounds in cats. To a control food, which was a dry food composed of kibbles containing a base level of 160 ppm zinc in the form of zinc acetate, various amounts of zinc were added in the form of zinc acetate as in Example 1. Eight cats were fed control food with no added zinc, eight cats were fed control food with 860 ppm zinc acetate added, seven cats were fed control food with 1200 ppm zinc acetate added, and seven cats were fed control food with 1800 ppm zinc acetate added. The cats were fed one of these diets for one month. At the end of the month, stool samples were collected and analyzed as described in Example 1.\nas §2"}, "[3]": {"tested_on": "flatulence", "conditions": "dogs, literature report; cited from earlier work"}, "[4]": {"conditions": "400 ppm added zinc on control food"}, "[5]": {"conditions": "600 ppm added zinc on control food"}, "[6]": {"conditions": "900 ppm added zinc on control food"}, "[7]": {"conditions": "860 ppm added zinc on control food"}, "[8]": {"conditions": "1200 ppm added zinc on control food"}, "[9]": {"conditions": "1800 ppm added zinc on control food"}},
  "note": "Read-outs that look alike come from different tables or passages of the source.",
  "data": [
    {"smiles": "CC(=O)[O-].CC(=O)[O-].[Zn+2]", "note": "[zinc acetate]", "values": [
      {"measurement": "Alcohols", "setting": "[1]; [4]", "value": "17.3 ± 12.5 ×10^5"},
      {"measurement": "Aldehydes", "setting": "[1]; [4]", "value": "0.45 ± 0.3 ×10^3"},
      {"measurement": "Carboxylic acids", "setting": "[1]; [4]", "value": "3.79 ± 3.55 ×10^4"},
      {"measurement": "Esters", "setting": "[1]; [4]", "value": "34.3 ± 34.0 ×10^5"},
      {"measurement": "Heterocycles", "setting": "[1]; [4]", "value": "0.94 ± 0.37 ×10^4"},
      {"measurement": "Indoles", "setting": "[1]; [4]", "value": "2.64 ± 2.19 ×10^4"},
      {"measurement": "Ketones", "setting": "[1]; [4]", "value": "179 ± 0.89 ×10^6"},
      {"measurement": "Phenols", "setting": "[1]; [4]", "value": "9.62 ± 6.0 ×10^4"},
      {"measurement": "Thiols/Sulfides", "setting": "[1]; [4]", "value": "8.69 ± 6.16 ×10^4"},
      {"measurement": "Alcohols", "setting": "[1]; [5]", "value": "12.3 ± 0.9 ×10^5"},
      {"measurement": "Aldehydes", "setting": "[1]; [5]", "value": "0.56 ± 0.51 ×10^3"},
      {"measurement": "Carboxylic acids", "setting": "[1]; [5]", "value": "22.7 ± 32.2 ×10^4"},
      {"measurement": "Esters", "setting": "[1]; [5]", "value": "34.1 ± 34.4 ×10^5"},
      {"measurement": "Heterocycles", "setting": "[1]; [5]", "value": "1.19 ± 0.54 ×10^4"},
      {"measurement": "Indoles", "setting": "[1]; [5]", "value": "2.0 ± 0.86 ×10^4"},
      {"measurement": "Ketones", "setting": "[1]; [5]", "value": "201 ± 66.5 ×10^6"},
      {"measurement": "Phenols", "setting": "[1]; [5]", "value": "9.17 ± 5.64 ×10^4"},
      {"measurement": "Thiols/Sulfides", "setting": "[1]; [5]", "value": "5.14 ± 2.4 ×10^4"},
      {"measurement": "Alcohols", "setting": "[1]; [6]", "value": "23.4 ± 14.3 ×10^5"},
      {"measurement": "Aldehydes", "setting": "[1]; [6]", "value": "1.09 ± 1.29 ×10^3"},
      {"measurement": "Carboxylic acids", "setting": "[1]; [6]", "value": "27.2 ± 21.2 ×10^4"},
      {"measurement": "Esters", "setting": "[1]; [6]", "value": "32.6 ± 0.9 ×10^5"},
      {"measurement": "Heterocycles", "setting": "[1]; [6]", "value": "1.13 ± 0.49 ×10^4"},
      {"measurement": "Indoles", "setting": "[1]; [6]", "value": "1.78 ± 2.45 ×10^4"},
      {"measurement": "Ketones", "setting": "[1]; [6]", "value": "160 ± 63.1 ×10^6"},
      {"measurement": "Phenols", "setting": "[1]; [6]", "value": "4.08 ± 3.58 ×10^4"},
      {"measurement": "Thiols/Sulfides", "setting": "[1]; [6]", "value": "4.91 ± 1.3 ×10^4"},
      {"measurement": "Effect of addition of zinc to the food on stool odor compound levels (in words)", "setting": "[1]; dogs, 400-900 ppm added zinc vs control food", "value": "decreased levels of phenols, thiols and sulfides and indoles"},
      {"measurement": "Alcohols", "setting": "[2]; [7]", "value": "13.2 ± 27 ×10^4"},
      {"measurement": "Aldehydes", "setting": "[2]; [7]", "value": "5.6 ± 3.6 ×10^4"},
      {"measurement": "Carboxylic acids", "setting": "[2]; [7]", "value": "317 ± 160 ×10^4"},
      {"measurement": "Esters", "setting": "[2]; [7]", "value": "78.4 ± 22.9 ×10^4"},
      {"measurement": "Heterocycles", "setting": "[2]; [7]", "value": "0.62 ± 0.13 ×10^4"},
      {"measurement": "Indoles", "setting": "[2]; [7]", "value": "0.39 ± 0.3 ×10^4"},
      {"measurement": "Ketones", "setting": "[2]; [7]", "value": "25.6 ± 8.14 ×10^4"},
      {"measurement": "Phenols", "setting": "[2]; [7]", "value": "10.3 ± 4.3 ×10^4"},
      {"measurement": "Thiols/Sulfides", "setting": "[2]; [7]", "value": "6.2 ± 2.3 ×10^4"},
      {"measurement": "Alcohols", "setting": "[2]; [8]", "value": "6.87 ± 10.8 ×10^4"},
      {"measurement": "Aldehydes", "setting": "[2]; [8]", "value": "3.6 ± 1.7 ×10^4"},
      {"measurement": "Carboxylic acids", "setting": "[2]; [8]", "value": "225 ± 78.1 ×10^4"},
      {"measurement": "Esters", "setting": "[2]; [8]", "value": "76.9 ± 47.5 ×10^4"},
      {"measurement": "Heterocycles", "setting": "[2]; [8]", "value": "0.62 ± 0.22 ×10^4"},
      {"measurement": "Indoles", "setting": "[2]; [8]", "value": "0.88 ± 0.62 ×10^4"},
      {"measurement": "Ketones", "setting": "[2]; [8]", "value": "60.7 ± 38.1 ×10^4"},
      {"measurement": "Phenols", "setting": "[2]; [8]", "value": "12.6 ± 4.7 ×10^4"},
      {"measurement": "Thiols/Sulfides", "setting": "[2]; [8]", "value": "7.7 ± 3.4 ×10^4"},
      {"measurement": "Alcohols", "setting": "[2]; [9]", "value": "15.1 ± 23.3 ×10^4"},
      {"measurement": "Aldehydes", "setting": "[2]; [9]", "value": "1.9 ± 1.6 ×10^4"},
      {"measurement": "Carboxylic acids", "setting": "[2]; [9]", "value": "146 ± 144 ×10^4"},
      {"measurement": "Esters", "setting": "[2]; [9]", "value": "28.7 ± 1.8 ×10^4"},
      {"measurement": "Heterocycles", "setting": "[2]; [9]", "value": "0.46 ± 0.17 ×10^4"},
      {"measurement": "Indoles", "setting": "[2]; [9]", "value": "2.3 ± 1.5 ×10^4"},
      {"measurement": "Ketones", "setting": "[2]; [9]", "value": "42.2 ± 26.2 ×10^4"},
      {"measurement": "Phenols", "setting": "[2]; [9]", "value": "7.2 ± 2.7 ×10^4"},
      {"measurement": "Thiols/Sulfides", "setting": "[2]; [9]", "value": "6.8 ± 3.9 ×10^4"},
      {"measurement": "Effect of addition of zinc to the food on stool odor compound levels (in words)", "setting": "[2]; cats, 860-1800 ppm added zinc vs control food", "value": "decreased stool levels of heterocycles, indoles, aldehydes and phenols"},
      {"measurement": "number of flatulent episodes", "setting": "[3]", "value": "decreased"},
      {"measurement": "odor of gas", "setting": "[3]", "value": "decreased"},
      {"measurement": "total gas production", "setting": "[3]", "value": "decreased"}
    ]}
  ]
}
